# Test results as given in ChEMBL document CHEMBL4831493 (Eur J Med Chem, 2021).
# The source made the active and inactive calls. No cut-off for these calls is given here.
# Tests used:
# [1] = target: Mitogen-activated protein kinase 11 (Homo sapiens) (UniProt Q15759); assay: Inhibition of p38beta (unknown origin) at 0.3 uM
# [2] = Tmax in Sprague-Dawley rat at 10 mg/kg, po measured up to 24 hrs by LC-MS/MS analysis; assay type: ADME, organism-based; details: in vivo
# [3] = target: Dual specificity tyrosine-phosphorylation-regulated kinase 1A (Homo sapiens) (UniProt Q13627); assay: Inhibition of dyrk1 alpha (unknown origin) at 0.3 uM
# [4] = MRT (0 to infinity) in Sprague-Dawley rat at 10 mg/kg, po measured up to 24 hrs by LC-MS/MS analysis; assay type: ADME, organism-based; details: in vivo
# Rattus norvegicus = assay: Neuroprotective activity against amyloid beta (1 to 42)-induced suppression of synaptophysin in Sprague-Dawley rat at 5 mg/kg/day, po measured after 5 days by immunohistochemistry assay; assay type: functional, organism-based; details: time 5.0 day
# [5] = target: Cyclin-dependent kinase 4 (Homo sapiens) (UniProt P11802); assay: Inhibition of CDK4 (unknown origin) at 0.3 uM
# Cyclin-dependent kinase 4 (Homo sapiens), sequence (P11802 whole entry): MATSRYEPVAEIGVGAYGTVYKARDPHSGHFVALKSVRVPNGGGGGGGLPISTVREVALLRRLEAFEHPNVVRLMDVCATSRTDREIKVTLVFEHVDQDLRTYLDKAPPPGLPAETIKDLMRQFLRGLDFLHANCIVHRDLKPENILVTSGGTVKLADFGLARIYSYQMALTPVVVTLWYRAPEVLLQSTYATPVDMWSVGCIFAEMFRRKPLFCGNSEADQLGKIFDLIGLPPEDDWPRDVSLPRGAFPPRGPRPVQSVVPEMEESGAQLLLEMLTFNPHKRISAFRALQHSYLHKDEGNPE
# [6] = Drug level in ICR mouse plasma at 10 mg/kg, po measured after 1.5 hrs by LC/MS/MS analysis; assay type: ADME, organism-based
# [7] = Toxicity in amyloid beta (1 to 42)-induced mouse model of Alzheimer's disease assessed as changes in body weight at 10 mg/kg/day, po measured after 9 days; assay type: organism-based; details: in vivo, 216 h, time 9 day
# [8] = target: Glycogen synthase kinase-3 beta (Homo sapiens, UniProt P49841); assay: Inhibition of human recombinant N-terminal His-tagged GSK3beta expressed in Escherichia coli using RRRPASVPPSPSLS RHS(pS)HQRR as substrate incubated for 30 mins in presence of ATP by Kinase-Glo reagent based luminescence assay
# Glycogen synthase kinase-3 beta, sequence (P49841 whole entry): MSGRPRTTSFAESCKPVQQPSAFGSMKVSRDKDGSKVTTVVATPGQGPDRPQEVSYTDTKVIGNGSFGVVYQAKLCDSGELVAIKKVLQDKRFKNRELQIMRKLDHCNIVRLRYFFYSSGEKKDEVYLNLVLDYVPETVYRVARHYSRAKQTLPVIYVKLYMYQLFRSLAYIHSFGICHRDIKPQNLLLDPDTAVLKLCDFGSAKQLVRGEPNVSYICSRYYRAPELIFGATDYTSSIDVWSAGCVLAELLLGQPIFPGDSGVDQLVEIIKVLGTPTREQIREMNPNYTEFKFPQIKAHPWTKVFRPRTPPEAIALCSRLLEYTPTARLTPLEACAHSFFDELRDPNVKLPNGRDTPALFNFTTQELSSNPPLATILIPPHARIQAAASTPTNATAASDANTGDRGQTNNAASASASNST
# [9] = Cmax in Sprague-Dawley rat at 1 mg/kg, iv measured up to 24 hrs by LC-MS/MS analysis; assay type: ADME, organism-based; design: route intravenous, dose 1 mg/kg, time <=24; details: in vivo
# [10] = Toxicity in amyloid beta (1 to 42)-induced mouse model of Alzheimer's disease assessed as changes in swimming speed at 10 mg/kg/day, po measured after 9 days; assay type: organism-based; details: in vivo, 216 h, time 9 day
# [11] = target: Mitogen-activated protein kinase 9 (Homo sapiens) (UniProt P45984); assay: Inhibition of JNK2 (unknown origin) at 0.3 uM
# Mitogen-activated protein kinase 9 (Homo sapiens), sequence (P45984 whole entry, looked up): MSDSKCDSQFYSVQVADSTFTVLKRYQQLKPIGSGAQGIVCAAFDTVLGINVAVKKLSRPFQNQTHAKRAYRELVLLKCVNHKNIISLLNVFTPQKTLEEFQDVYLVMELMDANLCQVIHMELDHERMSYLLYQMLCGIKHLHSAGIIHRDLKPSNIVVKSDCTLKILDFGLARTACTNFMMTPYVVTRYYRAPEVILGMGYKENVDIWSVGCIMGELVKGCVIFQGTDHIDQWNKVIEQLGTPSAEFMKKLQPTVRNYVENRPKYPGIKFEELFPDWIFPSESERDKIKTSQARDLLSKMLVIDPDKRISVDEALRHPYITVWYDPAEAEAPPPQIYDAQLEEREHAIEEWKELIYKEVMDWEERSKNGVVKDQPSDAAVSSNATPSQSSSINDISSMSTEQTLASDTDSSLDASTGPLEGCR
# Acetylcholinesterase = Acetylcholinesterase (Homo sapiens, UniProt P22303); assay: Inhibition of human recombinant AChE preincubated for 1 min in presence of DNTB followed by addition of acetylthiocholine iodide substrate and measured after 20 mins by Ellman's method
# Acetylcholinesterase, sequence (P22303 whole entry): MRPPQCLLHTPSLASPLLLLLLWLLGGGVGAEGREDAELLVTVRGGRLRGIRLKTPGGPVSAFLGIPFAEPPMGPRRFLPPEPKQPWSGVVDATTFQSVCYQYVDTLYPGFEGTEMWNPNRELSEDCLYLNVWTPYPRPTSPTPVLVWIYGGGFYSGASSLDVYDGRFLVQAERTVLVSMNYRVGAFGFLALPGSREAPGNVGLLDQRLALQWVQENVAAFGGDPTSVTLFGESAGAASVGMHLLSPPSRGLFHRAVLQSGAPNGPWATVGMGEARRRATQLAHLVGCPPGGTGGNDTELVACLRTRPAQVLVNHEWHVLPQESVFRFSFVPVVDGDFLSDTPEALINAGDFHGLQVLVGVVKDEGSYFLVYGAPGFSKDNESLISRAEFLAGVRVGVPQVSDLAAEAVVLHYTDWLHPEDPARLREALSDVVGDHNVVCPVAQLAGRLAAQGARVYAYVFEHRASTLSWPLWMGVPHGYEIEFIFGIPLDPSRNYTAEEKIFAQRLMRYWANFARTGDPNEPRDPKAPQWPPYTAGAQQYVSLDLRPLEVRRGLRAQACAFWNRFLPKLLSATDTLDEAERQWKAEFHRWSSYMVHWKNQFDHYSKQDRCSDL
# [12] = target: Glycogen synthase kinase-3 beta (Mus musculus) (UniProt Q9WV60); assay: Inhibition of GSK3beta in mouse N2a cells overexpressing human tau assessed as decrease in tau phosphorylation at Ser 396 residue measured after 6 hrs by Western blot assay; assay type: cell-based
# Glycogen synthase kinase-3 beta (Mus musculus), sequence (Q9WV60 whole entry, looked up): as the sequence (P49841 whole entry) above, with T390P, T392A, A400T, T402A counted along it
# [13] = AUC (0 to infinity) in Sprague-Dawley rat at 1 mg/kg, iv measured up to 24 hrs by LC-MS/MS analysis; assay type: ADME, organism-based; design: route intravenous, dose 1 mg/kg, time <=24; details: in vivo
# [14] = Half life in Sprague-Dawley rat at 1 mg/kg, iv measured up to 24 hrs by LC-MS/MS analysis; assay type: ADME, organism-based; details: in vivo
# [15] = target: Cyclin-dependent kinase 7 (Homo sapiens) (UniProt P50613); assay: Inhibition of CDK7 (unknown origin) at 0.3 uM
# Cyclin-dependent kinase 7 (Homo sapiens), sequence (P50613 whole entry): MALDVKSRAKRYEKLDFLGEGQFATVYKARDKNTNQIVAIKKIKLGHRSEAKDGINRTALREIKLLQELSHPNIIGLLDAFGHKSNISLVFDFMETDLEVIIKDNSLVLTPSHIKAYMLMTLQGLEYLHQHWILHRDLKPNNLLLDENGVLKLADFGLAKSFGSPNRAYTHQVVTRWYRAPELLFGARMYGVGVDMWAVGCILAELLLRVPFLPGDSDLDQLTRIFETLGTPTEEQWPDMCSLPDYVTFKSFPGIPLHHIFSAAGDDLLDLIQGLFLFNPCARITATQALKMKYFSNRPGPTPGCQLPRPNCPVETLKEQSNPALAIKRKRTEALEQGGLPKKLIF
# [16] = target: Cyclin-dependent kinase 1 (Homo sapiens) (UniProt P06493); assay: Inhibition of CDK1 (unknown origin) at 0.3 uM
# Cyclin-dependent kinase 1 (Homo sapiens), sequence (P06493 whole entry, looked up): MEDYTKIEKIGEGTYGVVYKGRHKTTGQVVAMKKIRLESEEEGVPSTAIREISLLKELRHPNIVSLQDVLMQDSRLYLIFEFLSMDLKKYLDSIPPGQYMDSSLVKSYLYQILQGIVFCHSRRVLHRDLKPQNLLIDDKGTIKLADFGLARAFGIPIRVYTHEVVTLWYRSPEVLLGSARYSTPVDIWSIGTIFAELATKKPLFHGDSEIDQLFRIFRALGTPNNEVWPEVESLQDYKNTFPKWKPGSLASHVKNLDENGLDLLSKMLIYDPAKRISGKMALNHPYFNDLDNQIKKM
# [17] = target: T1, Acetylcholinesterase (Mus musculus) (UniProt P21836); details: ICR, dose 10.0 mg/kg, time 1.5 hrs
# T1 sequence (whole entry): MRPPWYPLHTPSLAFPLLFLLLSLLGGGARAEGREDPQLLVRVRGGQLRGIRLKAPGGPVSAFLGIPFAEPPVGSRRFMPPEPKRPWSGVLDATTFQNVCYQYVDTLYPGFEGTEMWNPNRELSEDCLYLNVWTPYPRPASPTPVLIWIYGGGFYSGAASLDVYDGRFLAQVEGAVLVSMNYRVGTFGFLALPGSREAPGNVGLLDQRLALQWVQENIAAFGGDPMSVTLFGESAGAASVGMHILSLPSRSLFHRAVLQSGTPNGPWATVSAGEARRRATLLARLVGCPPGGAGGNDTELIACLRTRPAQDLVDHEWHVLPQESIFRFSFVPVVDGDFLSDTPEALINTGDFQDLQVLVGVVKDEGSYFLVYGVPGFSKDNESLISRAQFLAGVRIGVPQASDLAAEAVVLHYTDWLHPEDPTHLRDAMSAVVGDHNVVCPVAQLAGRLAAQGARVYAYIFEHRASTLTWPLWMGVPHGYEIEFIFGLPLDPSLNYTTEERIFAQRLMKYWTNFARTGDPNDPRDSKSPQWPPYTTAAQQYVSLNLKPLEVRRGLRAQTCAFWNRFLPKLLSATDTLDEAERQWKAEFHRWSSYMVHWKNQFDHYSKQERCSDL
# [18] = target: Mitogen-activated protein kinase 10 (Homo sapiens) (UniProt P53779); assay: Inhibition of JNK3 (unknown origin) at 0.3 uM
# Mitogen-activated protein kinase 10 (Homo sapiens), sequence (P53779 whole entry): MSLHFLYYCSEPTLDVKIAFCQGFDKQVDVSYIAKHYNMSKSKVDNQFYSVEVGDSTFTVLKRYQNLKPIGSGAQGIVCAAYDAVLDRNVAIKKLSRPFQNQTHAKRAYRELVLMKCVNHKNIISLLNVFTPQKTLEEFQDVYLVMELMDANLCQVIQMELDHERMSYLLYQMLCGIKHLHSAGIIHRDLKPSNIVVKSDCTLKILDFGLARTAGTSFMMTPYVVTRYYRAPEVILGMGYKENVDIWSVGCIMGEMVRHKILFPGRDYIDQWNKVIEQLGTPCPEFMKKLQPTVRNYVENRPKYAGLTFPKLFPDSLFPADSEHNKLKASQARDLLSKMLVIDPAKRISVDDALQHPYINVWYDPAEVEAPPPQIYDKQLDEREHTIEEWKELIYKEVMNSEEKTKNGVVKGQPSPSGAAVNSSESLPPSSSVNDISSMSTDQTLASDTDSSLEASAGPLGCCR
# [19] = MRT (0 to infinity) in Sprague-Dawley rat at 1 mg/kg, iv measured up to 24 hrs by LC-MS/MS analysis; assay type: ADME, organism-based; details: in vivo
# [20] = Toxicity in amyloid beta (1 to 42)-induced mouse model of Alzheimer's disease assessed as morphological changes in liver tissue at 10 mg/kg/day, po measured after 9 days by HE staining method; assay type: organism-based; details: in vivo, 216 h, time 9 day
# [21] = target: Glycogen synthase kinase-3 beta (Mus musculus) (UniProt Q9WV60); assay: Inhibition of GSK3beta in glutamate-induced mouse HT-22 cells assessed as increase in synaptophysin level at 0.6 uM pretreated with glutamate for 24 hrs followed by compound treatment by immunocytochemistry assay; assay type: cell-based
# [22] = Half life in Sprague-Dawley rat at 10 mg/kg, po measured up to 24 hrs by LC-MS/MS analysis; assay type: ADME, organism-based; details: in vivo
# [23] = target: Mitogen-activated protein kinase 13 (Homo sapiens) (UniProt O15264); assay: Inhibition of p38delta (unknown origin) at 0.3 uM
# Mitogen-activated protein kinase 13 (Homo sapiens), sequence (O15264 whole entry): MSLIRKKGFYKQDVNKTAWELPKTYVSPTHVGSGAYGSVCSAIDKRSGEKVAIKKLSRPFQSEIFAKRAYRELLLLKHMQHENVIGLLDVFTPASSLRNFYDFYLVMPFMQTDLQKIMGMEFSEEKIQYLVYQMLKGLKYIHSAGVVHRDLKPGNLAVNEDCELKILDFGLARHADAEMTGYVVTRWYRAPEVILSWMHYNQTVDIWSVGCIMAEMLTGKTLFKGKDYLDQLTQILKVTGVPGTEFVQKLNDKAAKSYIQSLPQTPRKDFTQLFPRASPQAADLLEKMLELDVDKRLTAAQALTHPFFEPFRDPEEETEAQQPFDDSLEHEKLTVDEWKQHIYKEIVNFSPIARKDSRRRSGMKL
# Cholinesterase = Cholinesterase (Homo sapiens, UniProt P06276); assay: Inhibition of BChE (unknown origin)
# Cholinesterase, sequence (P06276 whole entry): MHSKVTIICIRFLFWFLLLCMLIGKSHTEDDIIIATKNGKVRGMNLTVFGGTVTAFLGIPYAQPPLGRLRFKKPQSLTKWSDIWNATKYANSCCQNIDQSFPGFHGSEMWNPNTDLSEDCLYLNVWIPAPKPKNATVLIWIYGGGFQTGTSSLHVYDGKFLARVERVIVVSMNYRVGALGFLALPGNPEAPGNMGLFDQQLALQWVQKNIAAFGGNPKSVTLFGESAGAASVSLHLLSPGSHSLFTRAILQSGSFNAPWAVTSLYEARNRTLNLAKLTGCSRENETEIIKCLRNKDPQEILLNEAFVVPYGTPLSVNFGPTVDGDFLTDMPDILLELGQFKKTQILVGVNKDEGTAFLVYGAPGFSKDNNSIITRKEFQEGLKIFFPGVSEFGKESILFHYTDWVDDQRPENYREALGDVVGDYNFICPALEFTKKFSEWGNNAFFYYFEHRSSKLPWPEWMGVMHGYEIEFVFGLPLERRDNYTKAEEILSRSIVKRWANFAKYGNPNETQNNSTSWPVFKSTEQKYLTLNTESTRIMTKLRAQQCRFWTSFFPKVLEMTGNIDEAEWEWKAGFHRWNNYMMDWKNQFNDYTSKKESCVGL
# [24] = Cmax in Sprague-Dawley rat at 10 mg/kg, po measured up to 24 hrs by LC-MS/MS analysis; assay type: ADME, organism-based; design: route oral, dose 10 mg/kg, time <=24; details: in vivo
# [25] = Drug level in ICR mouse brain at 10 mg/kg, po measured after 1 hr by LC/MS/MS analysis; assay type: ADME, organism-based; details: read-out: Ct
# [26] = Effective permeability of the compound by PAMPA-BBB assay; assay type: ADME; details: read-out: Peff
# [27] = target: Cholinesterases; ACHE & BCHE (Homo sapiens) (UniProt P06276+P22303); assay: Selectivity index, ratio of IC50 for BChE (unknown origin) to IC50 for human recombinant AChE; assay type: protein assay
# Cholinesterases; ACHE & BCHE (Homo sapiens), sequence (P06276 whole entry, looked up): as the sequence (P06276 whole entry) above
# Cholinesterases; ACHE & BCHE (Homo sapiens), sequence (P22303 whole entry, looked up): as the sequence (P22303 whole entry) above
# [28] = Ratio of drug level in brain to plasma of ICR mouse at 10 mg/kg, po measured after 1 hr by LC/MS/MS analysis; assay type: ADME, organism-based; details: brain and plasma
# [29] = Drug level in ICR mouse plasma at 10 mg/kg, po measured after 1 hr by LC/MS/MS analysis; assay type: ADME, organism-based
# Mitogen-activated protein kinase 11 (Homo sapiens), sequence (Q15759 whole entry): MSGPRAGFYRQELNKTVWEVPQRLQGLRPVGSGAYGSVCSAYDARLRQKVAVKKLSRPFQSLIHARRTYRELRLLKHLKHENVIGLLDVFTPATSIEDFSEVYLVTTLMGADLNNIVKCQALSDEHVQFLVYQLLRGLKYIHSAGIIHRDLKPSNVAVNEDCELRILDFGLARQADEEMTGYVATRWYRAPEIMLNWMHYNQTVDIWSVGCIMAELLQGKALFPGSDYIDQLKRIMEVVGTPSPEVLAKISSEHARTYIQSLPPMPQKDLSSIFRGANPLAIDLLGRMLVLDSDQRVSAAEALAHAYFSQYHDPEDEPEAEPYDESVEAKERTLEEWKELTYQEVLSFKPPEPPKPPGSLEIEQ
smiles,measurement,setting,value
O=C(Nc1cncc(OCC2CCN(Cc3ccc(F)cc3)CC2)c1)c1ccnc(NC(=O)C2CC2)c1,inhibition,[1],inactive
same,Tmax,[2],1.9 h
same,inhibition,[3],inactive
same,MRT inf,[4],10.9 h
same,Activity,Rattus norvegicus,Active
same,inhibition,[5],inactive
same,concentration at 1.5 h,[6],343 ng/g
same,Activity,[7],Non-Toxic
same,IC50,[8],31 nM
same,Cmax,[9],200 ng/mL
same,Activity,[10],Non-Toxic
same,inhibition,[11],inactive
same,IC50,Acetylcholinesterase,1 nM
same,inhibition,[12],Dose-Dependent Effect
same,AUC(0-inf),[13],407 ng·h/mL
same,half-life,[14],5.2 h
same,inhibition,[15],inactive
same,inhibition,[16],inactive
same,inhibition,[17],85.5%
same,inhibition,[18],inactive
same,MRT inf,[19],5.1 h
same,Activity,[20],Non-Toxic
same,inhibition,[21],Active
same,half-life,[22],7.6 h
same,inhibition,[23],inactive
same,IC50,Cholinesterase,5300 nM
same,Cmax,[24],159 ng/mL
same,concentration at 1 h,[25],62 ng/g
same,Papp,[26],10.5 ×10⁻⁶ cm/s
same,Selectivity Index,[27],5300
same,Kp at 1 h,[28],0.153
same,concentration at 1 h,[29],405 ng/g
